Patent publication US12435044B2, “Pyridazinone herbicides and pyridazinone intermediates used to prepare a herbicide” (FMC Corporation, priority 2018, dated 2025)

How the values were obtained:
Assay type in all cases: in vivo
[1] = system: foxtail, giant (Setaria faberii); test: Test A pre-/postemergence greenhouse test
Description: (§1) Seeds of plant species selected from barnyardgrass (Echinochloa crus-galli), kochia (Kochia scoparia), ragweed (common ragweed, Ambrosia elatior), ryegrass, Italian (Lolium multiflorum), foxtail, giant (Setaria faberii), foxtail, green (Setaria viridis) and pigweed (Amaranthus retroflexus) were planted into a blend of loam soil and sand and treated preemergence with a directed soil spray using test chemicals formulated in a non-phytotoxic solvent mixture which included a surfactant.
(§2) At the same time, plants selected from these weed species and also wheat (Triticum aestivum), corn (Zea mays), blackgrass (Alopecurus myosuroides) and galium (catchweed bedstraw, Galium aparine) were planted in pots containing the same blend of loam soil and sand and treated with postemergence applications of test chemicals formulated in the same manner. Plants ranged in height from 2 to 10 cm and were in the one- to two-leaf stage for the postemergence treatment. Treated plants and untreated controls were maintained in a greenhouse for approximately 10 d, after which time all treated plants were compared to untreated controls and visually evaluated for injury. Plant response ratings, summarized in Table A, are based on a 0 to 100 scale where 0 is no effect and 100 is complete control. A dash (-) response means no test result.

[2] = system: surinam grass (Brachiaria decumbens); test: Test E pre-/postemergence greenhouse test
Description: (§3) Seeds of plant species selected from corn (Zea mays), soybean (Glycine max), velvetleaf (Abutilon theophrasti), lambsquarters (Chenopodium album), poinsettia, wild (Euphorbia heterophylla), pigweed, palmer (Amaranthus palmeri), waterhemp (common waterhemp, Amaranthus rudis), surinam grass (Brachiaria decumbens), crabgrass, large (Digitaria sanguinalis), crabgrass, Brazil (Digitaria horizontalis), panicum, fall (Panicum dichotomiflorum), foxtail, giant (Setaria faberii), foxtail, green (Setaria viridis), goosegrass (Eleusine indica), johnsongrass (Sorghum halepense), ragweed (common ragweed, Ambrosia elatior), barnyardgrass (Echinochloa crus-galli), sandbur (southern sandbur, Cenchrus echinatus), arrowleaf sida (Sida rhombifolia), ryegrass, Italian (Lolium multiflorum), dayflower, VA (Virginia (VA) dayflower, Commelina virginica), field bindweed (Convolvulus arvensis), morningglory (Ipomoea coccinea), horseweed (Conyza canadensis), kochia (Kochia scoparia), nutsedge, yellow (Cyperus esculentus) and hairy beggarticks (Bidenspilosa), were planted into a silt loam soil and treated preemergence with test chemicals formulated in a non-phytotoxic solvent mixture which included a surfactant.
(§4) At the same time, plants selected from these crop and weed species and also waterhemp_RES1, (ALS & Triazine resistant common waterhemp, Amaranthus rudis), and waterhemp_RES2, (ALS & HPPD resistant common waterhemp, Amaranthus rudis) were planted in pots containing Redi-Earth® planting medium (Scotts Company, 14111 Scottslawn Road, Marysville, Ohio 43041) comprising spaghnum peat moss, vermiculite, wetting agent and starter nutrients were treated with postemergence applications of test chemicals formulated in the same manner. Plants ranged in height from 2 to 18 cm for postemergence treatments (1- to 4-leaf stage). Treated plants and controls were maintained in a greenhouse for 14 to 21 d, after which time all species were compared to controls and visually evaluated. Plant response ratings, summarized in Table E, are based on a scale of 0 to 100 where 0 is no effect and 100 is complete control. A dash (-) response means no test result.

[3] = system: crabgrass, large (Digitaria sanguinalis); test: Test E pre-/postemergence greenhouse test
Description: as §3, §4

[4] = system: foxtail, giant (Setaria faberii); test: Test E pre-/postemergence greenhouse test
Description: as §3, §4

[5] = system: barnyardgrass (Echinochloa crus-galli); test: Test E pre-/postemergence greenhouse test
Description: as §3, §4

[6] = system: panicum, fall (Panicum dichotomiflorum); test: Test E pre-/postemergence greenhouse test
Description: as §3, §4

[7] = system: rice (transplanted and water seeded, Oryza sativa); test: Test C flooded paddy test; details: Flood, scale 0 to 100
Description: (§5) Plant species in the flooded paddy test consisted of rice (transplanted and water seeded, Oryza sativa), sedge, umbrella (small-flower umbrella sedge, Cyperus difformis), ducksalad (Heteranthera limosa), Bulrush, Japanese (Scirpus juncoides) and barnyardgrass (Echinochloa crus-galli) grown to the 2-leaf stage for testing. At time of treatment, test pots were flooded to 3 cm above the soil surface, treated by application of test compounds directly to the paddy water, and then maintained at that water depth for the duration of the test. Treated plants and controls were maintained in a greenhouse for 13 to 15 d, after which time all species were compared to controls and visually evaluated. Plant response ratings, summarized in Table C are based on a scale of 0 to 100 where 0 is no effect and 100 is complete control. A dash (-) response means no test result.

[8] = system: ducksalad (Heteranthera limosa); test: Test C flooded paddy test; details: Flood, scale 0 to 100
Description: as §5

[9] = system: barnyardgrass (Echinochloa crus-galli); test: Test C flooded paddy test; details: Flood, scale 0 to 100
Description: as §5

[10] = system: sedge, umbrella (small-flower umbrella sedge, Cyperus difformis); test: Test C flooded paddy test; details: Flood, scale 0 to 100
Description: as §5

[11] = system: foxtail, green (Setaria viridis); test: Test A pre-/postemergence greenhouse test
Description: as §1, §2

Cc1cc(Cl)c2ccccc2c1-c1c(O)c(Cl)nn(C)c1=O [Cpd. No. 65]
Plant response rating (0 to 100 scale) ([1]; Postemergence, 31 g ai/ha): 100
Plant response rating (0 to 100 scale) ([1]; Postemergence, 125 g ai/ha): 100
Plant response rating (0 to 100 scale) ([1]; Preemergence, 31 g ai/ha): 100
Plant response rating (0 to 100 scale) ([1]; Preemergence, 125 g ai/ha): 100
Plant response rating, Surinam Grass ([2]; Postemergence, 16 g ai/ha): 73
Plant response rating, Surinam Grass ([2]; Postemergence, 31 g ai/ha): 78
Plant response rating, Surinam Grass ([2]; Postemergence, 62 g ai/ha): 85
Plant response rating, Surinam Grass ([2]; Postemergence, 125 g ai/ha): 93
Plant response rating, Surinam Grass ([2]; Preemergence, 16 g ai/ha): 8
Plant response rating, Surinam Grass ([2]; Preemergence, 31 g ai/ha): 92
Plant response rating, Surinam Grass ([2]; Preemergence, 62 g ai/ha): 85
Plant response rating, Surinam Grass ([2]; Preemergence, 125 g ai/ha): 100
Plant response rating, Crabgrass, Large ([3]; Postemergence, 16 g ai/ha): 10
Plant response rating, Crabgrass, Large ([3]; Postemergence, 31 g ai/ha): 13
Plant response rating, Crabgrass, Large ([3]; Postemergence, 62 g ai/ha): 30
Plant response rating, Crabgrass, Large ([3]; Postemergence, 125 g ai/ha): 35
Plant response rating, Crabgrass, Large ([3]; Preemergence, 16 g ai/ha): 45
Plant response rating, Crabgrass, Large ([3]; Preemergence, 31 g ai/ha): 18
Plant response rating, Crabgrass, Large ([3]; Preemergence, 62 g ai/ha): 38
Plant response rating, Crabgrass, Large ([3]; Preemergence, 125 g ai/ha): 48
Plant response rating, Foxtail, Giant ([4]; Postemergence, 16 g ai/ha): 70
Plant response rating, Foxtail, Giant ([4]; Postemergence, 31 g ai/ha): 88
Plant response rating, Foxtail, Giant ([4]; Postemergence, 62 g ai/ha): 90
Plant response rating, Foxtail, Giant ([4]; Postemergence, 125 g ai/ha): 95
Plant response rating, Foxtail, Giant ([4]; Preemergence, 16 g ai/ha): 5
Plant response rating, Foxtail, Giant ([4]; Preemergence, 31 g ai/ha): 78
Plant response rating, Foxtail, Giant ([4]; Preemergence, 62 g ai/ha): 90
Plant response rating, Foxtail, Giant ([4]; Preemergence, 125 g ai/ha): 100
Plant response rating, Barnyardgrass ([5]; Postemergence, 16 g ai/ha): 80
Plant response rating, Barnyardgrass ([5]; Postemergence, 31 g ai/ha): 88
Plant response rating, Barnyardgrass ([5]; Postemergence, 62 g ai/ha): 93
Plant response rating, Barnyardgrass ([5]; Postemergence, 125 g ai/ha): 95
Plant response rating, Barnyardgrass ([5]; Preemergence, 16 g ai/ha): 0
Plant response rating, Barnyardgrass ([5]; Preemergence, 31 g ai/ha): 40
Plant response rating, Barnyardgrass ([5]; Preemergence, 62 g ai/ha): 38
Plant response rating, Barnyardgrass ([5]; Preemergence, 125 g ai/ha): 60
Plant response rating, Panicum, Fall ([6]; Postemergence, 16 g ai/ha): 80
Plant response rating, Panicum, Fall ([6]; Postemergence, 31 g ai/ha): 88
Plant response rating, Panicum, Fall ([6]; Postemergence, 62 g ai/ha): 93
Plant response rating, Panicum, Fall ([6]; Postemergence, 125 g ai/ha): 93
Plant response rating, Panicum, Fall ([6]; Preemergence, 16 g ai/ha): 75
Plant response rating, Panicum, Fall ([6]; Preemergence, 31 g ai/ha): 99
Plant response rating, Panicum, Fall ([6]; Preemergence, 62 g ai/ha): 100
Plant response rating, Panicum, Fall ([6]; Preemergence, 125 g ai/ha): 99
Plant response rating, Rice, Transplanted ([7]; 31 g ai/ha): 0
Plant response rating, Rice, Transplanted ([7]; 62 g ai/ha): 0
Plant response rating, Rice, Transplanted ([7]; 125 g ai/ha): 20
Plant response rating, Rice, Water Seeded ([7]; 125 g ai/ha): 10
Plant response rating, Rice, Transplanted ([7]; 250 g ai/ha): 70
Plant response rating, Ducksalad ([8]; 31 g ai/ha): 95
Plant response rating, Ducksalad ([8]; 62 g ai/ha): 100
Plant response rating, Ducksalad ([8]; 125 g ai/ha): 100
Plant response rating, Ducksalad ([8]; 250 g ai/ha): 100
Plant response rating, Barnyardgrass ([9]; 31 g ai/ha): 0
Plant response rating, Barnyardgrass ([9]; 62 g ai/ha): 10
Plant response rating, Barnyardgrass ([9]; 125 g ai/ha): 30
Plant response rating, Barnyardgrass ([9]; 250 g ai/ha): 100
Plant response rating, Sedge, Umbrella ([10]; 31 g ai/ha): 95
Plant response rating, Sedge, Umbrella ([10]; 62 g ai/ha): 100
Plant response rating, Sedge, Umbrella ([10]; 125 g ai/ha): 100
Plant response rating, Sedge, Umbrella ([10]; 250 g ai/ha): 100

Cc1ccc2ccc(F)cc2c1-c1c(O)c(Cl)nn(C)c1=O [Cpd. No. 21]
Plant response rating (0 to 100 scale) ([11]; Postemergence, 31 g ai/ha): 90
Plant response rating (0 to 100 scale) ([11]; Postemergence, 125 g ai/ha): 100
Plant response rating (0 to 100 scale) ([11]; Preemergence, 31 g ai/ha): 70
Plant response rating (0 to 100 scale) ([11]; Preemergence, 125 g ai/ha): 100
Plant response rating, Rice, Transplanted ([7]; 31 g ai/ha): 0
Plant response rating, Rice, Transplanted ([7]; 62 g ai/ha): 0
Plant response rating, Rice, Transplanted ([7]; 125 g ai/ha): 0
Plant response rating, Rice, Transplanted ([7]; 250 g ai/ha): 15
Plant response rating, Ducksalad ([8]; 31 g ai/ha): 0
Plant response rating, Ducksalad ([8]; 62 g ai/ha): 30
Plant response rating, Ducksalad ([8]; 125 g ai/ha): 80
Plant response rating, Ducksalad ([8]; 250 g ai/ha): 85
Plant response rating, Barnyardgrass ([9]; 31 g ai/ha): 0
Plant response rating, Barnyardgrass ([9]; 62 g ai/ha): 0
Plant response rating, Barnyardgrass ([9]; 125 g ai/ha): 30
Plant response rating, Barnyardgrass ([9]; 250 g ai/ha): 65
Plant response rating, Sedge, Umbrella ([10]; 31 g ai/ha): 0
Plant response rating, Sedge, Umbrella ([10]; 62 g ai/ha): 0
Plant response rating, Sedge, Umbrella ([10]; 125 g ai/ha): 0
Plant response rating, Sedge, Umbrella ([10]; 250 g ai/ha): 0
